In the NIST ThermoML archive (doi:10.1016/j.jct.2005.09.003):

Key:
[1] = refractive index (Na D-line) (dimensionless); conditions: 298.15 K; 101.33 kPa; Liquid; Standard Abbe refractometry
[2] = Liquid

CCCCCCCl [1-chlorohexane]
Conditions	refractive index
[1]	1.4172

mass density [kg/m3], [2]
Conditions	298.15 K	308.15 K	318.15 K	328.15 K
100 kPa	873.42	863.99	854.58	845.18
2130 kPa	874.73	865.56	856.27	847.12
4150 kPa	876.45	867.35	858.19	849.17
6180 kPa	878.31	869.15	860.06	851.16
8210 kPa	879.79	870.9	861.91	853.13
10230 kPa	881.44	872.61	863.73	855.02
11250 kPa	882.22	873.47	864.62	855.98
12260 kPa	883.01	874.3	865.5	856.91
14290 kPa	884.61	875.96	867.28	858.76
16310 kPa	886.16	877.59	869	860.59
18340 kPa	887.68	879.2	870.66	862.35
20370 kPa	889.18	880.78	872.33	864.12
22390 kPa	890.65	882.35	873.95	865.82
24420 kPa	892.14	883.86	875.54	867.51
26450 kPa	893.54	885.35	877.12	869.18
28470 kPa	894.96	886.84	878.67	870.8
29490 kPa	895.65	887.56	879.43	871.6
30500 kPa	896.32	888.21	880.19	872.4
32530 kPa	897.71	889.73	881.7	873.95
34550 kPa	899.05	891.14	883.17	875.49
36580 kPa	900.38	892.52	884.63	877.05
38600 kPa	901.69	893.9	886.04	878.53
39620 kPa	902.33	894.55	886.76	879.31

CCCCCCCC [octane]
Conditions	refractive index
[1]	1.395

mass density [kg/m3], [2]
Conditions	298.15 K	308.15 K	318.15 K	328.15 K
100 kPa	698.64	690.43	682.47	674.53
2130 kPa	700.14	692.18	684.48	676.49
4150 kPa	701.87	694	686.45	678.56
6180 kPa	703.56	695.79	688.29	680.59
8210 kPa	705.17	697.53	690.17	682.57
10230 kPa	706.78	699.24	691.97	684.51
11250 kPa	707.58	700.07	692.85	685.44
12260 kPa	708.37	700.88	693.77	686.38
14290 kPa	709.9	702.55	695.49	688.23
16310 kPa	711.41	704.13	697.2	690.03
18340 kPa	712.9	705.71	698.86	691.76
20370 kPa	714.36	707.23	700.47	693.5
22390 kPa	715.78	708.76	702.07	695.17
24420 kPa	717.18	710.22	703.61	696.82
26450 kPa	718.56	711.66	705.13	698.41
28470 kPa	719.9	713.09	706.66	699.98
29490 kPa	720.57	713.77	707.38	700.75
30500 kPa	721.22	714.47	708.13	701.53
32530 kPa	722.53	715.84	709.54	703.01
34550 kPa	723.82	717.18	710.96	704.5
36580 kPa	725.06	718.5	712.33	705.96
38600 kPa	726.32	719.82	713.68	707.36
39620 kPa	726.94	720.45	714.38	708.06
